From ChEMBL document CHEMBL1129899, “Synthesis of CD-ring modified 1,25-dihydroxy vitamin D analogues: Five-membered D-ring analogues” (1997)

Legend:
[1] = biological target: T1, Vitamin D3 receptor (Homo sapiens) (UniProt P11473); assay: Relative affinity compared to Calcitriol in displacement of [3H]1H]1-alpha,25(OH)2D3 from vitamin D receptor (VDR) in MG-63 cells; type: functional, cell-based
T1 sequence (whole entry): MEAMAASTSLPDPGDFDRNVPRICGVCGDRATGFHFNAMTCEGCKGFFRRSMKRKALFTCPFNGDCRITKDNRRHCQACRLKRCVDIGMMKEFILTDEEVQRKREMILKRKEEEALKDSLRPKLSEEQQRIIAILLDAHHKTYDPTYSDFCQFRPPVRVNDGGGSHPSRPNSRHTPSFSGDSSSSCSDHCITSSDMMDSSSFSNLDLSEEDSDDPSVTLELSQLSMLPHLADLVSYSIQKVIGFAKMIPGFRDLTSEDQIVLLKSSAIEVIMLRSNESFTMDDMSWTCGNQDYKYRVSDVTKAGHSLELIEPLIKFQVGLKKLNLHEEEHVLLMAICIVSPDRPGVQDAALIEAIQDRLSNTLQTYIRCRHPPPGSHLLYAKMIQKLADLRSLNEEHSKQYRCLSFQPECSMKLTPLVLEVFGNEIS

[2] = biological target: T1, Vitamin D3 receptor (Homo sapiens); assay: Relative affinity compared to Calcitriol in displacement of [3H]1H]1-alpha,25(OH)2D3 from vitamin D3 receptor in […] cells; type: cell-based
[3] = biological target: T1, Vitamin D3 receptor (Homo sapiens); assay: Relative affinity compared to Calcitriol in displacement of [3H]1H]1-alpha,25(OH)2D3 from Vitamin D3 receptor in HL-60 cells; type: functional, cell-based
[4] = biological target: T2, Vitamin D3 receptor (Sus scrofa) (UniProt A3RGC1); assay: Affinity for pig intestinal mucosa Vitamin D3 receptor (VDR); type: tissue-based
T2 sequence (whole entry): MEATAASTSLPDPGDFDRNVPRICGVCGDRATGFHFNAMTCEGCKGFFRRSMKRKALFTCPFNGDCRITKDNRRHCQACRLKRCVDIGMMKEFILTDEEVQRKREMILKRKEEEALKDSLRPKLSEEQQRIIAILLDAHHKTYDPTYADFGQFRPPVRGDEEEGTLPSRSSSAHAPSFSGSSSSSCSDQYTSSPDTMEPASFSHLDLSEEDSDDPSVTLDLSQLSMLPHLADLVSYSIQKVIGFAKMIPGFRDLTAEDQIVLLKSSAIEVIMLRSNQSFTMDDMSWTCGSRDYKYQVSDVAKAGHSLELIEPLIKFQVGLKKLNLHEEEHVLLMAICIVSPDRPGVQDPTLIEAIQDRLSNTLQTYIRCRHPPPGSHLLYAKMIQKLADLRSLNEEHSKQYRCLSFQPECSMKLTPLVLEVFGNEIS

Mus musculus = assay: In vivo calcemic effect was tested in vitamin D replete normal […] mice by measuring calcium levels in serum; type: functional; set-up: reference not given here
[5] = tested on: keratinocytes (Homo sapiens); assay: Antiproliferative activity relative to Calcitriol in Keratinocyte cell lines

Activity [1] | Activity [2] | Activity [3] | Activity [4] | Activity [5] | SMILES | Activity (Mus musculus)
30% | 85% | 85% | 80 | 90% | C=C1/C(=C/C=C/[C@@H]2CC[C@H]([C@H](C)CCCC(C)(C)O)C2(C)C)C[C@@H](O)C[C@@H]1O | 0.3
10% | 150% | 100% | 40 | 200% | C=C1/C(=C/C=C/[C@@H]2CC[C@H]([C@@H](C)CC#CC(C)(C)O)C2(C)C)C[C@@H](O)C[C@@H]1O | 0.5
10% | 85% | 100% | 70 | 100% | C=C1/C(=C/C=C/[C@@H]2CC[C@H]([C@@H](C)CCCC(C)(C)O)C2(C)C)C[C@@H](O)C[C@@H]1O | 3
 | 200% | 100% | 40 |  | C=C1/C(=C/C=C/[C@@H]2CC[C@H]([C@H](C)CC#CC(C)(C)O)C2(C)C)C[C@@H](O)C[C@@H]1O | 0.25
8% | 1% | 10% | 80 | 85% | C=C1/C(=C/C=C/[C@@H]2CC[C@H]([C@H](C)CCCC(C)(C)O)[C@@]2(C)CCC)C[C@@H](O)C[C@@H]1O | 1
